# Results taken from the supplement of paper PMC9663587.
# Experiments:
# Pictilisib/GDC0941 = compound: CS(=O)(=O)N1CCN(Cc2cc3nc(-c4cccc5[nH]ncc45)nc(N4CCOCC4)c3s2)CC1 [Pictilisib/GDC0941]
# [1] = compound: CCC1=CN=CN=C1N2CCN(CC2)CC3=NC4=C(N3)C=C(C=C4)C(F)(F)F
# Tivantinib/ARQ197 = compound: O=C1NC(=O)[C@@H](c2cn3c4c(cccc24)CCC3)[C@@H]1c1c[nH]c2ccccc12 [Tivantinib/ARQ197]
# BSJ-03-123 = compound: CC(=O)c1c(C)c2cnc(Nc3ccc(N4CCN(CCOCCOCCOCCNC(=O)COc5cccc6c5C(=O)N(C5CCC(=O)NC5=O)C6=O)CC4)cn3)nc2n(C2CCCC2)c1=O [BSJ-03-123]
# Dasatinib = compound: Cc1nc(Nc2ncc(C(=O)Nc3c(C)cccc3Cl)s2)cc(N2CCN(CCO)CC2)n1 [Dasatinib]
# [2] = compound: CNc1nc(-c2ccc3c(N)n[nH]c3c2)cc(N2C[C@@H](C(=O)NC3CCCCC3)CC[C@H]2C)n1
# [3] = compound: CCc1cnn2c(NCc3ccc[n+]([O-])c3)cc(N3CCCC[C@H]3CCO)nc12
# Alpelisib/BYL719 = compound: Cc1nc(NC(=O)N2CCC[C@H]2C(N)=O)sc1-c1ccnc(C(C)(C)C(F)(F)F)c1 [Alpelisib/BYL719]
# Saracatinib/AZD0530 = compound: CN1CCN(CCOc2cc(OC3CCOCC3)c3c(Nc4c(Cl)ccc5c4OCO5)ncnc3c2)CC1 [Saracatinib/AZD0530]
# [4] = compound: Cc1nn(C)c(COc2ccc(N3CCN(S(=O)(=O)N(C)C)CC3)cc2)c1-c1cccc2c(CCCOc3cccc4ccccc34)c(C(=O)O)n(CCN3CCOCC3)c12
# INK128/MLN0128 = compound: CC(C)n1nc(-c2ccc3oc(N)nc3c2)c2c(N)ncnc21 [INK128/MLN0128]
# THZ1 = compound: CN(C)C/C=C/C(=O)Nc1ccc(C(=O)Nc2cccc(Nc3ncc(Cl)c(-c4c[nH]c5ccccc45)n3)c2)cc1 [THZ1]
# [5] = compound: COc1ccc2c(c1)[C@]1(C[C@H]1c1ccc3c(/C=C/c4ccc(CN5C[C@@H](C)O[C@@H](C)C5)cc4)n[nH]c3c1)C(=O)N2
# [6] = compound: CCCCOc1c(C(=O)c2c(F)cc(C)cc2F)c[nH]c2nncc1-2
# Volasertib/BI6727 = compound: CC[C@@H]1C(=O)N(C)c2cnc(Nc3ccc(C(=O)N[C@H]4CC[C@H](N5CCN(CC6CC6)CC5)CC4)cc3OC)nc2N1C(C)C [Volasertib/BI6727]
# BVD523 = compound: CC(C)Nc1cc(-c2c[nH]c(C(=O)N[C@H](CO)c3cccc(Cl)c3)c2)c(Cl)cn1 [BVD523]
# Buparlisib/NVP-BKM120 = compound: Nc1cc(C(F)(F)F)c(-c2cc(N3CCOCC3)nc(N3CCOCC3)n2)cn1 [Buparlisib/NVP-BKM120]
# THZ-P1-2 = compound: CN(C)C/C=C/C(=O)NC1=CC=C(C=C1)C(=O)NC2=CC=CC(=C2)NC3=NC=NC(=C3)C4=CNC5=CC=CC=C54 [THZ-P1-2]
# Ceritinib/LDK378 = compound: Cc1cc(Nc2ncc(Cl)c(Nc3ccccc3S(=O)(=O)C(C)C)n2)c(OC(C)C)cc1C1CCNCC1 [Ceritinib/LDK378]
# Cediranib/AZD2171 = compound: COc1cc2c(Oc3ccc4[nH]c(C)cc4c3F)ncnc2cc1OCCCN1CCCC1 [Cediranib/AZD2171]
# senexin b = compound: CN1CCN(C(=O)c2ccc3cc(CCNc4ncnc5ccc(C#N)cc45)ccc3c2)CC1 [senexin b]
# Rucaparib = compound: CNCc1ccc(-c2[nH]c3cc(F)cc4c3c2CCNC4=O)cc1 [Rucaparib]
# R0-3306 = compound: C1=CC2=C(C=CC(=C2)C=C3C(=O)NC(=NCC4=CC=CS4)S3)N=C1 [R0-3306]
# LEE011/Ribociclib = compound: CN(C)C(=O)c1cc2cnc(Nc3ccc(N4CCNCC4)cn3)nc2n1C1CCCC1 [LEE011/Ribociclib]
# AZD1775 = compound: C=CCn1c(=O)c2cnc(Nc3ccc(N4CCN(C)CC4)cc3)nc2n1-c1cccc(C(C)(C)O)n1 [AZD1775]
# AZD5363 = compound: NC1(C(=O)N[C@@H](CCO)c2ccc(Cl)cc2)CCN(c2nc[nH]c3nccc2-3)CC1 [AZD5363]
# AZD7762 = compound: NC(=O)Nc1cc(-c2cccc(F)c2)sc1C(=O)N[C@H]1CCCNC1 [AZD7762]
# Torin2 = compound: C1=CC(=CC(=C1)N2C(=O)C=CC3=CN=C4C=CC(=CC4=C32)C5=CN=C(C=C5)N)C(F)(F)F [Torin2]
# AZD2014 = compound: CNC(=O)c1cccc(-c2ccc3c(N4CCOC[C@@H]4C)nc(N4CCOC[C@@H]4C)nc3n2)c1 [AZD2014]
# SHP099 = compound: CC1(CCN(CC1)C2=CN=C(C(=N2)N)C3=C(C(=CC=C3)Cl)Cl)N [SHP099]
# [7] = compound: CO[C@@H](C)Cn1c(=O)n(C)c2cnc3ccc(-c4cncc(C(C)(C)O)c4)cc3c21
# [8] = compound: CC(=O)c1c(C)c2cnc(Nc3ccc(N4CCNCC4)cn3)nc2n(C2CCCC2)c1=O
# Neratinib/HKI272 = compound: CCOc1cc2ncc(C#N)c(Nc3ccc(OCc4ccccn4)c(Cl)c3)c2cc1NC(=O)/C=C/CN(C)C [Neratinib/HKI272]
# Vorinostat = compound: O=C(CCCCCCC(=O)Nc1ccccc1)NO [Vorinostat]
# Cabozantinib = compound: COc1cc2nccc(Oc3ccc(NC(=O)C4(C(=O)Nc5ccc(F)cc5)CC4)cc3)c2cc1OC [Cabozantinib]
# 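Further: breast cancer and non-malignant breast epithelial cell lines, Deep Dye Drop or Dye Drop imaging, nine half-log doses, GR normalized to time-zero plates and DMSO-only controls.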
Cell Line,"GR50, 72 h (Pictilisib/GDC0941)","GR50, 72 h [1]","GR50, 72 h (Tivantinib/ARQ197)","GR50, 72 h (BSJ-03-123)","GR50, 72 h (Dasatinib)","GR50, 72 h [2]","GR50, 72 h [3]","GR50, 72 h (Alpelisib/BYL719)","GR50, 72 h (Saracatinib/AZD0530)","GR50, 72 h [4]","GR50, 72 h (INK128/MLN0128)","GR50, 72 h (THZ1)","GR50, 72 h [5]","GR50, 72 h [6]","GR50, 72 h (Volasertib/BI6727)","GR50, 72 h (BVD523)","GR50, 72 h (Buparlisib/NVP-BKM120)","GR50, 72 h (THZ-P1-2)","GR50, 72 h (Ceritinib/LDK378)","GR50, 72 h (Cediranib/AZD2171)","GR50, 72 h (senexin b)","GR50, 72 h (Rucaparib)","GR50, 72 h (R0-3306)","GR50, 72 h (LEE011/Ribociclib)","GR50, 72 h (AZD1775)","GR50, 72 h (AZD5363)","GR50, 72 h (AZD7762)","GR50, 72 h (Torin2)","GR50, 72 h (AZD2014)","GR50, 72 h (SHP099)","GR50, 72 h [7]","GR50, 72 h [8]","GR50, 72 h (Neratinib/HKI272)","GR50, 72 h (Vorinostat)","GR50, 72 h (Cabozantinib)"
CAL51,2.89 µM,> 10 µM,0.588 µM,4.36 µM,0.0581 µM,> 10 µM,0.0147 µM,6.1 µM,1.85 µM,> 10 µM,0.015 µM,0.385 µM,0.00556 µM,3.95 µM,0.00591 µM,> 10 µM,0.989 µM,> 10 µM,0.475 µM,3.05 µM,> 10 µM,> 10 µM,8.06 µM,3.72 µM,0.274 µM,> 10 µM,0.0446 µM,0.0179 µM,0.163 µM,> 10 µM,0.0113 µM,0.373 µM,2.25 µM,1.83 µM,7.77 µM
SKBR3,0.114 µM,> 10 µM,0.273 µM,1.02 µM,3.65 µM,2.11 µM,0.00682 µM,0.485 µM,4.92 µM,> 10 µM,0.00265 µM,0.014 µM,0.00188 µM,0.0869 µM,0.00545 µM,6.46 µM,0.14 µM,4.25 µM,0.985 µM,6.2 µM,> 10 µM,> 10 µM,4.77 µM,6.14 µM,0.206 µM,2.76 µM,0.0203 µM,0.00361 µM,< 0.001 µM,> 10 µM,0.00188 µM,0.176 µM,0.00165 µM,0.767 µM,9.69 µM
ZR751,0.672 µM,> 10 µM,0.657 µM,3.04 µM,0.0343 µM,5.91 µM,0.035 µM,> 10 µM,3.66 µM,> 10 µM,0.00782 µM,0.428 µM,0.0085 µM,> 10 µM,0.115 µM,> 10 µM,1.15 µM,8.94 µM,3.79 µM,> 10 µM,> 10 µM,> 10 µM,> 10 µM,5.42 µM,6.23 µM,> 10 µM,2.29 µM,0.0172 µM,< 0.001 µM,> 10 µM,0.0135 µM,> 3.16 µM,> 3.16 µM,3.55 µM,> 10 µM
MDAMB231,5.32 µM,> 10 µM,0.416 µM,0.731 µM,0.0294 µM,> 10 µM,0.0103 µM,> 10 µM,2.33 µM,> 10 µM,0.0218 µM,0.0662 µM,0.00366 µM,1.16 µM,0.00436 µM,1.13 µM,1.51 µM,4.94 µM,0.866 µM,5.1 µM,> 10 µM,> 10 µM,8.73 µM,0.995 µM,0.0633 µM,> 10 µM,0.163 µM,0.0251 µM,0.583 µM,> 10 µM,0.031 µM,0.109 µM,1.43 µM,1.24 µM,4.83 µM
SUM149,6.06 µM,> 10 µM,0.281 µM,1.33 µM,0.0931 µM,> 10 µM,0.0134 µM,> 10 µM,2.49 µM,5.97 µM,0.163 µM,0.0493 µM,0.00332 µM,0.0163 µM,0.012 µM,1.96 µM,1.45 µM,6.14 µM,1.7 µM,5.18 µM,> 10 µM,> 10 µM,4.86 µM,> 10 µM,0.0722 µM,6.67 µM,0.0774 µM,0.142 µM,1.92 µM,> 10 µM,1.55 µM,–,0.0697 µM,1.37 µM,5.87 µM
PDX1206,–,–,–,4.35 µM,–,1.86 µM,–,–,–,–,–,0.0255 µM,0.00708 µM,0.00176 µM,–,> 10 µM,–,> 10 µM,–,–,1.18 µM,> 10 µM,3.6 µM,> 10 µM,0.313 µM,0.457 µM,–,–,< 0.001 µM,> 10 µM,0.00134 µM,–,–,–,–
BT474,0.188 µM,> 10 µM,0.551 µM,0.235 µM,0.0392 µM,1.3 µM,0.0162 µM,0.309 µM,0.896 µM,> 10 µM,0.00873 µM,0.0129 µM,0.0122 µM,> 10 µM,0.00821 µM,> 10 µM,0.281 µM,5.82 µM,> 10 µM,> 10 µM,5.65 µM,> 10 µM,3.53 µM,> 10 µM,0.621 µM,–,2 µM,0.00998 µM,< 0.001 µM,> 10 µM,< 0.001 µM,> 3.16 µM,0.00166 µM,2.71 µM,> 10 µM
